Assay results published in patent US12325744B2, “Methods for reducing post-operative cognitive dysfunction (POCD)” (The Kennedy Trust for Rheumatology Research, priority 2010, dated 2025).

Tested on: IL-1β
Experiment: Plasma (systemic) IL-1β by ELISA after tibial surgery
Format: in vivo
Conditions: wild type mice, minocycline 40 mg/kg i.p., enrofloxacin 10 mg/kg or IL-1Ra 100 mg/kg given prior to surgery, vs surgery alone
Excerpt: Mice were subjected to an open tibial fracture of the left hind paw with intramedullary fixation in aseptic conditions under general anaesthesia with isoflurane and analgesia with buprenorphineas previously described^18. Other groups of animals were not subjected to any intervention (naïve), or received anesthetic/analgesia alone, or underwent surgery with concurrent administration of minocycline, enrofloxacin, or IL-1 receptor antagonist (IL-1Ra). (For further details please refer to supplemental methods).
IL-6, TNF-α and IL-1β were measured by ELISA^19 (Biosource, CA; Bender Medsystem, CA, respectively). Hippocampal IL-1β was measured by ELISA (Bender Medsystem, CA), as previously described^20. To confirm reliability of dilution linearity and spike recovery cytokine measurement were also performed in mice in which inflammation was induced with i.p. LPS (0111:B4, Invivogen, CA). (For further details please refer to supplemental methods).
Mice were randomly assigned to the following groups: surgery under general anesthesia (S), surgery under general anesthesia plus minocycline (M), surgery under general anesthesia plus enrofloxacin (E), surgery under general anesthesia plus interleukin-1 receptor antagonist (IL-1Ra) (I), surgery in IL1R^−/− mice under general anesthesia (K), general anesthesia without surgery (A), and no intervention (naïve wild-type, or naïve IL1R^−/−). Under aseptic conditions, groups of mice were subjected to an open tibial fracture of the left hind paw with an intramedullary fixation as previously described^2. Briefly, isoflurane (Abbot Laboratories Ltd., Queensborough, Kent, UK) 2.1% in air (1.5 MAC)^3 and buprenorphine (Reckitt Benckiser Healthcare Ltd, Hull, UK) 0.1 mg/kg subcutaneously (sc), were given to provide both surgical anesthesia and extended post-operative analgesia for the surgical intervention and post-surgical recovery. After shaving the overlying skin and disinfecting with chlorhexidine gluconate 0.5% and isopropyl alcohol 70% (PDI, Orangeburg, NY, USA) a fracture of the tibial shaft was created under direct vision. […]

CCN1CCN(c2cc3c(cc2F)c(=O)c(C(=O)O)cn3C2CC2)CC1 [enrofloxacin, reference compound]
Plasma IL-1β after surgery, effect of treatment: exerted no effect on IL-1β plasma concentration
Plasma IL-1β after surgery, effect of treatment (listed as Enrofloxacin): failed to reduce plasma levels of IL-1β
